# Measurements as given in patent publication US10280169B2, “Biaryl bruton's tyrosine kinase inhibitors” (BIOGEN MA INC., priority 2013, dated 2019).
# pIC50: −log10 of the molar value.
# Target: T1, BTK (Homo sapiens, UniProt Q06187)
# T1 construct: purchased Upstate 14-552
# Experiment: In vitro BTK kinase assay: BTK-POLYGAT-LS assay
# Assay type: biochemical
# Details: 10 uM ATP, read-out: IC50 (10 uMATP)
# T1 sequence (Q06187 whole entry): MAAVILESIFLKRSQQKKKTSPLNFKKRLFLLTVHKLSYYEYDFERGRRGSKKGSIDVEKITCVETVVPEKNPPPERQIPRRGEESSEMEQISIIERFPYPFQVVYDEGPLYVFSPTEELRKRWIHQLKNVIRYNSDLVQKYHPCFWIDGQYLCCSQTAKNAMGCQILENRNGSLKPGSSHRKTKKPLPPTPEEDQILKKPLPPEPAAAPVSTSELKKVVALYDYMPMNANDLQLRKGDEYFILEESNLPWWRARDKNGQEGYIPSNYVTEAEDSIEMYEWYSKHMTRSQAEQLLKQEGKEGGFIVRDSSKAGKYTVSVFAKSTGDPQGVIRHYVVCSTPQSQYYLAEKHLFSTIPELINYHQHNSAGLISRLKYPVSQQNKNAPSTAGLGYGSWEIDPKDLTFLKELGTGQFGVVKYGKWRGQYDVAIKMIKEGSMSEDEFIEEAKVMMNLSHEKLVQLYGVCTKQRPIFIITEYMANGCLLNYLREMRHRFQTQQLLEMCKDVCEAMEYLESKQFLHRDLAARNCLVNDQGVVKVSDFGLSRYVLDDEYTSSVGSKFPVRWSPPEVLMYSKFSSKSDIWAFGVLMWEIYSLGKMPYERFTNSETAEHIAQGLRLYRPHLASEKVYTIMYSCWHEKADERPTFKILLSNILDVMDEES
row,pIC50,SMILES
1,7.00 to 8.00,"CC(NC(=O)c1cc2c(s1)CCCC2)c1ccc(-c2ncnc3[nH]ncc23)cc1C(F)(F)F (centres unmarked) [Example I-135, N-(1-(4-(1H-pyrazolo[3,4-d]pyrimidin-4-yl)-2-(trifluoromethyl)phenyl)ethyl)-4,5,6,7-tetrahydrobenzo[b]thiophene-2-carboxamide]"
2,6.00 to 7.00,"CC(C)(C)c1ccc(C(=O)NCc2ccc(-c3ccnc4[nH]ccc34)nc2)nc1 [Example I-72, N-((6-(1H-pyrrolo[2,3-b]pyridin-4-yl)pyridin-3-yl)methyl)-5-(tert-butyl)picolinamide]"
3,7.00 to 8.00,"Cc1cc(-c2ncnc3c2cc(-c2cn(C)nc2C)n3C)ccc1CNC(=O)c1cnc(C(C)(C)C)s1 [Example I-28, 2-(tert-butyl)-N-(4-(6-(1,3-dimethyl-1H-pyrazol-4-yl)-7-methyl-7H-pyrrolo[2,3-d]pyrimidin-4-yl)-2-methylbenzyl)thiazole-5-carboxamide]"
4,5.00 to 6.00,"O=C(NCc1ccc(-c2ncnc3[nH]ccc23)cc1)c1cc(C(F)(F)F)c(Cl)cn1 [Example I-63, N-(4-(7H-pyrrolo[2,3-d]pyrimidin-4-yl)benzyl)-5-chloro-4-(trifluoromethyl)picolinamide]"
5,7.00 to 8.00,"O=C(NCc1ccc(-c2ncnc3[nH]ccc23)cc1)c1nc2c(s1)CCCC2 [Example I-62, N-(4-(7H-pyrrolo[2,3-d]pyrimidin-4-yl)benzyl)-4,5,6,7-tetrahydrobenzo[d]thiazole-2-carboxamide]"
6,7.00 to 8.00,"CC(C)c1csc(C(=O)NC2CCCc3cc(-c4ncnc5[nH]ncc45)ccc32)n1 (centres unmarked) [Example I-96, N-(6-(1H-pyrazolo[3,4-d]pyrimidin-4-yl)-1,2,3,4-tetrahydronaphthalen-1-yl)-4-isopropylthiazole-2-carboxamide]"
7,7.00 to 8.00,"O=C(NC1CCCc2cc(-c3ncnc4[nH]ncc34)ccc21)c1ccc(C(F)(F)F)cc1 (centres unmarked) [Example I-97, N-(6-(1H-pyrazolo[3,4-d]pyrimidin-4-yl)-1,2,3,4-tetrahydronaphthalen-1-yl)-4-(trifluoromethyl)benzamide]"
8,6.00 to 7.00,Cc1cc(-c2ncnc3sc4c(c23)CCC4)ccc1CNC(=O)c1cnc(C(C)(C)C)s1 [Example I-141]
9,6.00 to 7.00,O=C(NCc1ccc(-c2ncnc3[nH]ccc23)cc1)c1ccc(C(F)(F)F)cn1 [Compound I-146]
10,7.00 to 8.00,"O=C(NCc1ncc(-c2ccnc3[nH]ncc23)cc1F)c1cc2c(s1)CCCC2 [Example I-110, N-((3-fluoro-5-(1H-pyrazolo[3,4-b]pyridin-4-yl)pyridin-2-yl)methyl)-4,5,6,7-tetrahydrobenzo[b]thiophene-2-carboxamide]"
11,> 8.00,"Cc1cc(-c2ncnc3cc(C4CCS(=O)(=O)CC4)[nH]c23)ccc1CNC(=O)c1cnc(C(C)(C)C)s1 [Example I-23, 2-(tert-butyl)-N-(4-(6-(1,1-dioxidotetrahydro-2H-thiopyran-4-yl)-5H-pyrrolo[3,2-d]pyrimidin-4-yl)-2-methylbenzyl)thiazole-5-carboxamide]"
12,> 8.00,"Cn1cc(-c2cc3c(-c4ccc5c(c4)CCCCC5NC(=O)N4CCC(C(C)(C)C)C4)ncnc3[nH]2)cn1 (centres unmarked) [Example I-162, 3-(tert-butyl)-N-(2-(6-(1-methyl-1H-pyrazol-4-yl)-7H-pyrrolo[2,3-d]pyrimidin-4-yl)-6,7,8,9-tetrahydro-5H-benzo[7]annulen-5-yl)pyrrolidine-1-carboxamide]"
13,> 8.00,"Cn1cc(-c2cc3c(-c4ccc5c(c4)CCCCC5NC(=O)c4cnn(C(C)(C)C)c4)ncnc3[nH]2)cn1 (centres unmarked) [Example I-160, 1-(tert-butyl)-N-(2-(6-(1-methyl-1H-pyrazol-4-yl)-7H-pyrrolo[2,3-d]pyrimidin-4-yl)-6,7,8,9-tetrahydro-5H-benzo[7]annulen-5-yl)-1H-pyrazole-4-carboxamide]"
14,6.00 to 7.00,"CC(NC(=O)c1nc2c(s1)CCCC2)c1ccc(-c2ncnc3[nH]ncc23)cc1C(F)(F)F (centres unmarked) [Example I-145, N-(1-(4-(1H-pyrazolo[3,4-d]pyrimidin-4-yl)-2-(trifluoromethyl)phenyl)ethyl)-4,5,6,7-tetrahydrobenzo[d]thiazole-2-carboxamide]"
15,7.00 to 8.00,"CC(C)(C)c1ccc(C(=O)NCc2ccc(-c3ncnc4[nH]ccc34)cc2C#N)nc1 [Example I-6, 5-(tert-butyl)-N-(2-cyano-4-(7H-pyrrolo[2,3-d]pyrimidin-4-yl)benzyl)picolinamide]"
16,5.00 to 6.00,"CC(C)(C)c1ncc(C(=O)N[C@H]2CCCc3cc(-c4ccnc5[nH]ncc45)cnc32)s1 [Example I-152, (S)—N-(3-(1H-pyrazolo[3,4-b]pyridin-4-yl)-5,6,7,8-tetrahydroquinolin-8-yl)-2-(tert-butyl)thiazole-5-carboxamide]"
17,6.00 to 7.00,"CC(C)(C)c1ccc(C(=O)NCc2ccc(-c3ncnc4[nH]ccc34)cc2)cn1 [Example I-67, N-(4-(7H-pyrrolo[2,3-d]pyrimidin-4-yl)benzyl)-6-(tert-butyl)nicotinamide]"
18,< 5.00,"CC(C)(C)c1ccc(C(=O)NC2CCc3cc(-c4ncnc5[nH]ccc45)ccc32)cc1 (centres unmarked) [Example I-154, N-(5-(7H-pyrrolo[2,3-d]pyrimidin-4-yl)-2,3-dihydro-1H-inden-1-yl)-4-(tert-butyl)benzamide]"

row,pIC50,SMILES
1,7.00 to 8.00,"O=C(NC1CCCc2cc(-c3ncnc4[nH]ncc34)ccc21)c1ccc(Cl)c(Cl)c1 (centres unmarked) [Example I-93, N-(6-(1H-pyrazolo[3,4-d]pyrimidin-4-yl)-1,2,3,4-tetrahydronaphthalen-1-yl)-3,4-dichlorobenzamide]"
2,5.00 to 6.00,"CC(C)(C)c1ccnc(C(=O)NC2CCCc3cc(-c4ncnc5[nH]ncc45)ccc32)c1 (centres unmarked) [Example I-150, N-(6-(1H-pyrazolo[3,4-d]pyrimidin-4-yl)-1,2,3,4-tetrahydronaphthalen-1-yl)-4-(tert-butyl)picolinamide]"
3,7.00 to 8.00,"Cc1cc(-c2ncnc3[nH]ccc23)cnc1CNC(=O)c1cc2c(s1)CCCC2 [Example I-153, N-((3-methyl-5-(7H-pyrrolo[2,3-d]pyrimidin-4-yl)pyridin-2-yl)methyl)-4,5,6,7-tetrahydrobenzo[b]thiophene-2-carboxamide]"
4,7.00 to 8.00,"Cc1cc(-c2ncnc3cc[nH]c23)ccc1C(C)NC(=O)c1cc2c(s1)CCCC2 (centres unmarked) [Example I-123, N-(1-(2-methyl-4-(5H-pyrrolo[3,2-d]pyrimidin-4-yl)phenyl)ethyl)-4,5,6,7-tetrahydrobenzo[b]thiophene-2-carboxamide]"
5,> 8.00,"Cc1cc(-c2ncnc3nc(N4CCC(C(=O)O)C4)[nH]c23)ccc1CNC(=O)c1cnc(C(C)(C)C)s1 (centres unmarked) [Example I-51, 1-(6-(4-((2-(tert-butyl)thiazole-5-carboxamido)methyl)-3-methylphenyl)-7H-purin-8-yl)pyrrolidine-3-carboxylic acid]"
6,> 8.00,"Cn1cc(-c2cc3c(-c4ccc5c(c4)CCCC5NC(=O)c4cnn(C(C)(C)C)c4)ncnc3[nH]2)cn1 (centres unmarked) [Example I-156, 1-(tert-butyl)-N-(6-(6-(1-methyl-1H-pyrazol-4-yl)-7H-pyrrolo[2,3-d]pyrimidin-4-yl)-1,2,3,4-tetrahydronaphthalen-1-yl)-1H-pyrazole-4-carboxamide]"
7,6.00 to 7.00,"CC(C)(C)c1ccc(C(=O)NC2CCCc3cc(-c4ncnc5[nH]ncc45)ccc32)nc1 (centres unmarked) [Example I-131, N-(6-(1H-pyrazolo[3,4-d]pyrimidin-4-yl)-1,2,3,4-tetrahydronaphthalen-1-yl)-5-(tert-butyl)picolinamide]"
8,7.00 to 8.00,"CC(C)(C)c1ncc(C(=O)NC2CCCc3cc(-c4ncnc5cc[nH]c45)ccc32)s1 (centres unmarked) [Example I-129, N-(6-(5H-pyrrolo[3,2-d]pyrimidin-4-yl)-1,2,3,4-tetrahydronaphthalen-1-yl)-2-(tert-butyl)thiazole-5-carboxamide]"
9,5.00 to 6.00,"O=C(NCc1ccc(-c2ncnc3[nH]ccc23)cc1)c1cc2c(cn1)CCCC2 [Example I-57, N-(4-(7H-pyrrolo[2,3-d]pyrimidin-4-yl)benzyl)-5,6,7,8-tetrahydroisoquinoline-3-carboxamide]"
10,> 8.00,"O=C(NC1CCCc2cc(-c3ncnc4[nH]ncc34)ccc21)c1cc2ccccc2s1 (centres unmarked) [Example I-120, N-(6-(1H-pyrazolo[3,4-d]pyrimidin-4-yl)-1,2,3,4-tetrahydronaphthalen-1-yl)benzo[b]thiophene-2-carboxamide]"
11,7.00 to 8.00,"O=C(NCc1ccc(-c2ccnc3[nH]ccc23)nc1)c1cc2c(s1)CCCC2 [Example I-73, N-((6-(1H-pyrrolo[2,3-b]pyridin-4-yl)pyridin-3-yl)methyl)-4,5,6,7-tetrahydrobenzo[b]thiophene-2-carboxamide]"
12,5.00 to 6.00,"O=C(NCc1ccc(-c2ncnc3[nH]ccc23)cc1)c1cn2c(n1)CCC2 [Example I-59, N-(4-(7H-pyrrolo[2,3-d]pyrimidin-4-yl)benzyl)-6,7-dihydro-5H-pyrrolo[1,2-a]imidazole-2-carboxamide]"
13,> 8.00,"Cc1cc(-c2ncnc3cc(-c4cnn(C)c4)n(C)c23)ccc1CNC(=O)c1cnc(C(C)(C)C)s1 [Example I-38, 2-(tert-butyl)-N-(2-methyl-4-(5-methyl-6-(1-methyl-1H-pyrazol-4-yl)-5H-pyrrolo[3,2-d]pyrimidin-4-yl)benzyl)thiazole-5-carboxamide]"
14,5.00 to 6.00,"CC(C)(C)c1ccc(C(=O)NC2COCc3cc(-c4ncnc5[nH]ccc45)ccc32)cc1 (centres unmarked) [Example I-83, N-(7-(7H-pyrrolo[2,3-d]pyrimidin-4-yl)isochroman-4-yl)-4-(tert-butyl)benzamide]"
15,> 8.00,"O=C(NC1CCCc2cc(-c3ncnc4[nH]ncc34)ccc21)c1cc2c(s1)CCCC2 (centres unmarked) [Example I-107, N-(6-(1H-pyrazolo[3,4-d]pyrimidin-4-yl)-1,2,3,4-tetrahydronaphthalen-1-yl)-4,5,6,7-tetrahydrobenzo[b]thiophene-2-carboxamide]"
16,7.00 to 8.00,"CC(NC(=O)c1cc2c(s1)CCCC2)c1ccc(-c2ncnc3[nH]ccc23)cc1C(F)(F)F (centres unmarked) [Example I-80, N-(1-(4-(7H-pyrrolo[2,3-d]pyrimidin-4-yl)-2-(trifluoromethyl)phenyl)ethyl)-4,5,6,7-tetrahydrobenzo[b]thiophene-2-carboxamide]"
17,7.00 to 8.00,"CC(C)(C)c1ccc(C(=O)NCc2ccc(-c3ncnc4[nH]ccc34)cc2C(F)(F)F)cc1 [Example I-3, N-(4-(7H-pyrrolo[2,3-d]pyrimidin-4-yl)-2-(trifluoromethyl)benzyl)-4-(tert-butyl)benzamide]"
